Test results reported in patent US9662327B2 (AGIOS PHARMACEUTICALS, INC, priority 2011, dated 2017).

Molecular target: IDH1 R132H (Homo sapiens (Human), UniProt O75874, R132H)
Assay: Assays for IDH1 R132H Inhibitors (NADPH/aKG, resazurin detection)
Type: biochemical
Conditions: IDH1 R132H enzyme, Table 2; read-out: IDHR132H Activity
Method in brief: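 Mutant enzyme in 150 mM NaCl, 10 mM MgCl2, 20 mM Tris pH 7.5, 0.03% BSA; compound in DMSO added to substrate mix of 8 uM NADPH and 2 mM aKG. Reaction ran 50 min at room temperature, then resazurin detection mix (30 μM) added for 5 min at room temperature.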

Sequence of IDH1 R132H (O75874 whole entry R132H): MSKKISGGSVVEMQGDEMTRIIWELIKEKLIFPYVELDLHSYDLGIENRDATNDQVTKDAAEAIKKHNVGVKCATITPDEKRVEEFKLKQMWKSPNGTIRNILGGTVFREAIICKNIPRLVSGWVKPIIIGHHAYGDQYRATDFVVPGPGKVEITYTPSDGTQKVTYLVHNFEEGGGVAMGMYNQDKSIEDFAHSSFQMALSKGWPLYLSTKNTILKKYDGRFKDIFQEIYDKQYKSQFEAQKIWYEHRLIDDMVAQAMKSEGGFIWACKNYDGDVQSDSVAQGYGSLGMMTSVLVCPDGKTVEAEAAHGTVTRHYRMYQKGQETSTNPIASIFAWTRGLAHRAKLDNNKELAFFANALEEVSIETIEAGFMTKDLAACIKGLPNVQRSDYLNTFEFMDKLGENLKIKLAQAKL

Row | IC50 [nM] | SMILES
1 | 1000 to 10000 | C=CCNC(=O)N1CCN(c2nc(C3CCCCC3)c3c(c2C#N)CCOC3)CC1C(=O)OCC (stereo not shown) [Compound 330, ethyl 1-(allylcarbamoyl)-4-(5-cyano-8-cyclohexyl-3,4-dihydro-1H-pyrano[3,4-c]pyridin-6-yl)-piperazine-2-carboxylate]
2 | 1000 to 10000 | C=CCNC(=O)N1CCN(c2nc(C(C)C)c3c(c2C#N)CC(C)(C)OC3)CC1C(=O)OCC (stereo not shown) [Compound 331, ethyl 1-(allylcarbamoyl)-4-(5-cyano-8-isopropyl-3,3-dimethyl-3,4-dihydro-1H-pyrano[3,4-c]pyridin-6-yl)piperazine-2-carboxylate]
3 | 500 to 1000 | CCOC(=O)C1CN(c2nc(C(C)C)c3c(c2C#N)CC(C)(C)OC3)CCN1C(=O)Cc1cccs1 (stereo not shown) [Compound 332, ethyl 4-(5-cyano-8-isopropyl-3,3-dimethyl-3,4-dihydro-1H-pyrano[3,4-c]pyridin-6-yl)-1-(2-(thiophen-2-yl)acetyl)piperazine-2-carboxylate]
4 | 1000 to 10000 | CCOC(=O)C1CN(c2nc(C(C)C)c3c(c2C#N)CC(C)(C)OC3)CCN1C(=O)OC (stereo not shown) [Compound 333, 2-ethyl 1-methyl 4-(5-cyano-8-isopropyl-3,3-dimethyl-3,4-dihydro-1H-pyrano[3,4-c]pyridine-6-yl)piperazine-1,2-dicarboxylate]
5 | 1000 to 10000 | C=CCNC(=O)N1CCN(c2nc(C3CCCCC3)c3c(c2C#N)CCOC3)C[C@H]1C [Compound 334, (R)—N-allyl-4-(5-cyano-8-cyclohexyl-3,4-dihydro-1H-pyrano[3,4-c]pyridin-6-yl)-2-methylpiperazine-1-carboxamide]
6 | 1000 to 10000 | CCNC(=O)N1CCN(c2nc(C3CCCCC3)c3c(c2C#N)CCOC3)C[C@H]1C [Compound 335, (R)-4-(5-cyano-8-cyclohexyl-3,4-dihydro-1H-pyrano[3,4-c]pyridin-6-yl)-N-ethyl-2-methylpiperazine-1-carboxamide]
7 | 1000 to 10000 | C[C@@H]1CN(c2nc(C3CCCCC3)c3c(c2C#N)CCOC3)CCN1S(C)(=O)=O [Compound 336, (R)-8-cyclohexyl-6-(3-methyl-4-(methylsulfonyl)piperazin-1-yl)-3,4-dihydro-1H-pyrano[3,4-c]pyridine-5-carbonitrile]
8 | 1000 to 10000 | COc1ccc(OC(=O)N2CCN(c3nc(C4CC4)c4c(c3C#N)CC(C)(C)OC4)C[C@H]2C(C)C)cc1 [Compound 337, (R)-4-methoxyphenyl 4-(5-cyano-8-cyclopropyl-3,3-dimethyl-3,4-dihydro-1H-pyrano[3,4-c]pyridine-6-yl)-2-isopropylpiperazine-1-carboxylate]
9 | 1000 to 10000 | CON(C)CC(=O)N1CCN(c2nc(C3CC3)c3c(c2C#N)CC(C)(C)OC3)C[C@H]1C(C)C [Compound 338]
10 | 1000 to 10000 | CC(C)COC(=O)N1CCN(c2nc(C3CC3)c3c(c2C#N)CC(C)(C)OC3)C[C@H]1C(C)C [Compound 339, (R)-isobutyl 4-(5-cyano-8-cyclopropyl-3,3-dimethyl-3,4-dihydro-1H-pyrano[3,4-c]pyridin-6-yl)-2-isopropyl-piperazine-1-carboxylate]
11 | < 500 | C[C@@H]1CN(c2nc(C3CCCCC3)c3c(c2C#N)CCOC3)CCN1C(=O)CCl [Compound 340, (R)-6-(4-(2-chloroacetyl)-3-methylpiperazin-1-yl)-8-cyclohexyl-3,4-dihydro-1H-pyrano[3,4-c]pyridine-5-carbonitrile]
12 | 1000 to 10000 | COCC(=O)N1CCN(c2nc(C3CCCCC3)c3c(c2C#N)CCOC3)C[C@H]1C [Compound 341]
13 | 1000 to 10000 | COC(=O)CN1CCN(c2nc(C3CCCCC3)c3c(c2C#N)CCOC3)C[C@H]1C [Compound 342, (R)-methyl 2-(4-(5-cyano-8-cyclohexyl-3,4-dihydro-1H-pyrano[3,4-c]pyridin-6-yl)-2-methylpiperazin-1-yl)acetate]
14 | 1000 to 10000 | C[C@@H]1CN(c2nc(C3CCCCC3)c3c(c2C#N)CCOC3)CCN1C(=O)OCc1ccccc1 [Compound 343, (R)-benzyl 4-(5-cyano-8-cyclohexyl-3,4-dihydro-1H-pyrano[3,4-c]pyridin-6-yl)-2-methylpiperazine-1-carboxylate]
15 | < 500 | CNC(=O)N1CCN(c2nc(C3CC3)c3c(c2C#N)CC(C)(C)OC3)C[C@H]1C(C)C [Compound 344]
16 | < 500 | COC(=O)N1CCN(c2nc(C3CC3)c3c(c2C#N)CC(C)(C)OC3)C[C@H]1C(C)C [Compound 346, (R)-methyl 4-(5-cyano-8-cyclopropyl-3,3-dimethyl-3,4-dihydro-1H-pyrano[3,4-c]pyridin-6-yl)-2-isopropylpiperazine-1-carboxylate]
17 | < 500 | COCC(=O)N1CCN(c2nc(C3CC3)c3c(c2C#N)CC(C)(C)OC3)C[C@H]1C(C)C [Compound 347, (R)-8-cyclopropyl-6-(3-isopropyl-4-(2-methoxyacetyl)piperazin-1-yl)-3,3-dimethyl-3,4-dihydro-1H-pyrano[3,4-c]pyridine-5-carbonitrile]
18 | 1000 to 10000 | CC(C)[C@@H]1CN(c2nc(C3CC3)c3c(c2C#N)CC(C)(C)OC3)CCN1C(=O)COCCO [Compound 348]
19 | 1000 to 10000 | CCCNC(=O)N1CCN(c2nc(C3CC3)c3c(c2C#N)CC(C)(C)OC3)C[C@H]1C(C)C [Compound 350, (R)-4-(5-cyano-8-cyclopropyl-3,3-dimethyl-3,4-dihydro-1H-pyrano[3,4-c]pyridin-6-yl)-2-isopropyl-N-propylpiperazine-1-carboxamide]

Row | IC50 [nM] | SMILES
20 | 1000 to 10000 | CC(C)[C@@H]1CN(c2nc(C3CC3)c3c(c2C#N)CC(C)(C)OC3)CCN1C(=O)N(C)C [Compound 351]
21 | 500 to 1000 | CC(=O)N1CCN(c2nc(C3CC3)c3c(c2C#N)CC(C)(C)OC3)C[C@H]1C(C)C [Compound 352]
22 | 500 to 1000 | COCCNC(=O)N1CCN(c2nc(C3CC3)c3c(c2C#N)CC(C)(C)OC3)C[C@H]1C(C)C [Compound 353]
23 | < 500 | CCC(=O)N1CCN(c2nc(C3CC3)c3c(c2C#N)CC(C)(C)OC3)C[C@H]1C(C)C [Compound 354, (R)-8-cyclopropyl-6-(3-isopropyl-4-propionylpiperazin-1-yl)-3,3-dimethyl-3,4-dihydro-1H-pyrano[3,4-c]pyridine-5-carbonitrile]
24 | 1000 to 10000 | COCCC(=O)N1[C@H](C)CN(c2nc(C3CC3)c3c(c2C#N)CC(C)(C)OC3)C[C@@H]1C [Compound 356]
25 | 1000 to 10000 | CNC(=O)N1CCN(c2nc(C3CCCCC3)c3c(c2C#N)CCOC3)C[C@H]1C [Compound 357, (R)-4-(5-cyano-8-cyclohexyl-3,4-dihydro-1H-pyrano[3,4-c]pyridin-6-yl)-N,2-dimethylpiperazine-1-carboxamide]
26 | 1000 to 10000 | CCOC(=O)N1CCN(c2nc(C3CCCCC3)c3c(c2C#N)CCOC3)C[C@H]1C [Compound 358, (R)-ethyl 4-(5-cyano-8-cyclohexyl-3,4-dihydro-1H-pyrano[3,4-c]pyridin-6-yl)-2-methylpiperazine-1-carboxylate]
27 | 1000 to 10000 | CCCOC(=O)N1CCN(c2nc(C3CCCCC3)c3c(c2C#N)CCOC3)C[C@H]1C [Compound 359, (R)-propyl 4-(5-cyano-8-cyclohexyl-3,4-dihydro-1H-pyrano[3,4-c]pyridin-6-yl)-2-methylpiperazine-1-carboxylate]
28 | 1000 to 10000 | C[C@@H]1CN(c2nc(C3CCCCC3)c3c(c2C#N)CCOC3)CCN1C(=O)NC1CC1 [Compound 360, (R)-4-(5-cyano-8-cyclohexyl-3,4-dihydro-1H-pyrano[3,4-c]pyridin-6-yl)-N-cyclopropyl-2-methylpiperazine-1-carboxamide]
29 | 1000 to 10000 | C#CCNC(=O)N1CCN(c2nc(C3CCCCC3)c3c(c2C#N)CCOC3)C[C@H]1C [Compound 361, (R)-4-(5-cyano-8-cyclohexyl-3,4-dihydro-1H-pyrano[3,4-c]pyridin-6-yl)-2-methyl-N-(prop-2-ynyl)piperazine-1-carboxamide]
30 | 1000 to 10000 | CC(=O)N1CCN(c2nc(C3CCCCC3)c3c(c2C#N)CCOC3)C[C@H]1C [Compound 362, (R)-6-(4-acetyl-3-methylpiperazin-1-yl)-8-cyclohexyl-3,4-dihydro-1H-pyrano[3,4-c]pyridine-5-carbonitrile]
31 | 1000 to 10000 | CCC(=O)N1CCN(c2nc(C3CCCCC3)c3c(c2C#N)CCOC3)C[C@H]1C [Compound 363, (R)-8-cyclohexyl-6-(3-methyl-4-propionylpiperazin-1-yl)-3,4-dihydro-1H-pyrano[3,4-c]pyridine-5-carbonitrile]
32 | 1000 to 10000 | CCCOC(=O)N1CCN(c2nc(C(C)C)c3c(c2C#N)CC(C)(C)OC3)CC1C(=O)OCC (stereo not shown) [Compound 364, 2-ethyl 1-propyl 4-(5-cyano-8-isopropyl-3,3-dimethyl-3,4-dihydro-1H-pyrano[3,4-c]pyridin-6-yl)piperazine-1,2-dicarboxylate]
33 | 1000 to 10000 | CC(C)[C@@H]1CN(c2nc(C3CC3)c3c(c2C#N)CC(C)(C)OC3)CCN1C(=O)NCC1CC1 [Compound 365]
34 | 1000 to 10000 | CCOC(=O)N1CCN(c2nc(C3CC3)c3c(c2C#N)CC(C)(C)OC3)C[C@H]1C(C)C [Compound 367]
35 | 500 to 1000 | CC(C)[C@@H]1CN(c2nc(C3CC3)c3c(c2C#N)CC(C)(C)OC3)CCN1C(=O)OCCO [Compound 368, (R)-2-hydroxyethyl 4-(5-cyano-8-cyclopropyl-3,3-dimethyl-3,4-dihydro-1H-pyrano[3,4-c]pyridin-6-yl)-2-isopropylpiperazine-1-carboxylate]
36 | 1000 to 10000 | COCCN1CCN(c2nc(C3CC3)c3c(c2C#N)CC(C)(C)OC3)C[C@H]1C(C)C [Compound 369, (R)-8-cyclopropyl-6-(3-isopropyl-4-(2-methoxyethyl)piperazin-1-yl)-3,3-dimethyl-3,4-dihydro-1H-pyrano[3,4-c]pyridine-5-carbonitrile]
37 | 1000 to 10000 | CC(C)[C@@H]1CN(c2nc(C3CC3)c3c(c2C#N)CC(C)(C)OC3)CCN1C(=O)OCC1CC1 [Compound 370, (R)-cyclopropylmethyl 4-(5-cyano-8-cyclopropyl-3,3-dimethyl-3,4-dihydro-1H-pyrano[3,4-c]pyridine-6-yl)-2-isopropylpiperazine-1-carboxylate]
